# Measurements taken from patent publication US11684601B2, “Treatment of cancer with combinations of agents” (The Board of Trustees of the Leland Stanford Junior …, priority 2019, dated 2023).
# Tests used:
# CHP134 cells [1] = assay: qPCR for SNCG and NGFR expression, CHP134; assay type: cell-based; conditions: hypoxia, 16 h
# Method: (§1) RNA Isolation, Reverse Transcription, and Real-Time PCR. Total RNA was isolated from tissue culture plates according to the TRIzol Reagent (Invitrogen) protocol. 3 μg of total RNA was used in the reverse transcription reaction using the iScript cDNA synthesis kit (Bio-Rad). Quantitative PCR amplification was performed on the Prism 7900 Sequence Detection System (Applied Biosystems) using Taqman Gene Expression Assays (Applied Biosystems). Gene expression data were normalized to 18S rRNA.
# [2] = test system: acetylation on H3K9, H3K27, and total H3; assay: Immunoblots of histone acetylation; assay type: cell-based; conditions: hypoxia, CHP134; for acetylation on H3K9, H3K27, and total H3: 5 mM acetate, 0.5 mM or 2 mM GTA
# Method: (§2) Protein isolation and western blot. Cells were washed with PBS buffer and lysed with Harvest lysis buffer supplemented with Halt inhibitors for 5-10 min. Cell lysate was centrifuged at 5000 rpm for 5 min at 4° C. The supernatant containing cytosolic proteins was transferred to a new EP tube. The insoluble part contains nuclear proteins and was further lysed with nuclear lysis buffer for 5 min at 4° C. Then the lysate was sonicated in water-bath at 4° C. for 6 cycles (1 cycle=30 s sonication and 30 s cooldown). After sonication, the cell lysate was centrifuged at 15000 rpm for 10 min. Protein concentration was determined by BOA assay. 1 μg nuclear proteins or 1 μg cytosolic proteins were boiled in loading buffer with reducing reagents, then separated with SDS-PAGE. Protein were transferred onto a nitrocellulose membrane. After blocking in 5% non-fat milk for 1 hour, the first antibody was applied. After 3×TBST washes, HRP-conjugated secondary antibodies were applied. Signals were detected with an ECL kit. The complete antibody list is in table 1.
# [3] = test system: tri-methylation on H3K9, H3K27; assay: Immunoblots of histone methylation; assay type: cell-based; conditions: hypoxia; CHP134; 1 mM or 5 mM DMKG
# Method: as §2
# SMS-KCNR cells [4] = assay: Neurite outgrowth assay, SMS-KCNR; assay type: cell-based; conditions: 48 h
# Method: (§3) Neurite outgrowth assay. For the differentiation of neuroblastoma cells, 1×10^5 CHP134 or SMS-KNCR cells were plated in 6 well-plate. After overnight incubation, cells in hypoxia treatment group were pre-incubated in 0.5% 02 hypoxia chamber for 6 h. Then RA was added to reach a final concentration of 10 μM. After 48 h treatment, images were taken through an Olympus phase contrast microscope (×20 magnification). The lengths of the neurites were traced and quantified using the ImageJ plugin NeuronJ. Within each sample, total neurite length was measured and normalized by the number of cell bodies, mean value from biological triplicates was reported.
# CHP134 cells [5] = assay: Neurite outgrowth assay, CHP134; assay type: cell-based
# Method: as §3
# SMS-KCNR cells [6] = assay: qPCR for SNCG and NGFR expression, SMS-KCNR; assay type: cell-based; conditions: hypoxia; 10 μM RA combined with 5 mM acetate or 2 mM GTA, 16 h
# Method: as §1
# [7] = Acetate measurement in plasma; assay type: in vivo, NSG mice; conditions: oral GTA, 5% in drinking water; p-value not significant
# Method: For acetate measurement, 10 ul of serum was mixed with 10 ul of 50 uM ^13C2-acetate. Then, the mixture was precipitated by the addition of 80 ul acetonitrile and centrifuged for 10 min at 20,000×g. 80 ul supernatant was transferred to a new tube and derivertized according to the published protocol. 2 ul sample was subjected to mass spectrometry analysis using Agilent 1290 coupled to Q-TOF 6545. […] The mobile phase were 5 mM ammonium formate and 0.1% formic acid in water (A) and 90% acetonitrile (B). […] Agilent Q-TOF was operated in positive mode with ion spray voltage at 3500 V. The ratio of acetate to ^13C2-acetate was calculated using Agilent Profinder software B.08.00.
# Mouse xenograft model. In viva studies were performed in accordance with protocols approved by the Institutional Animal Care and Use Committee at Stanford University and in compliance with all regulatory standards, 6 to 8-week-old male NSG mice were provided by Dr. Erinn Rankin. 2×10^6 CHP134 cells suspended in […] of RPMI-1640 with 50% Matrigel (BD Biosciences) were implanted subcutaneously into the dorsal flank of the mice. Tumor growth was recorded using digital caliper every other day, and tumor volumes were estimated using the formula: (L×W^2)/2, where L=length and W=width of tumor. The animals were randomized into 4 groups (Control, RA, GTA and GTA+RA) when the tumor volumes reached approximately 150 mm^3. […]
# [8] = infants with Canavan disease; high dose; cited from earlier work
# CHP134 mice xenografts = assay: Mouse xenograft model; assay type: in vivo; conditions: 10 mg/kg RA i.p. daily; after 23 days' treatment
# Method: Mouse xenograft model. […] Tumor growth was recorded using digital caliper every other day, and tumor volumes were estimated using the formula: (L×W^2)/2, where L=length and W=width of tumor. The animals were randomized into 4 groups (Control, RA, GTA and GTA+RA) when the tumor volumes reached approximately 150 mm^3. 10 mg/kg RA or DMSO vehicle was injected intraperitoneally daily for 3 weeks. Mice received GTA in the drinking water (5% by weight).
# CHP134 cells [9] = assay: RNA-Seq pathway analysis of RA-upregulated genes; assay type: cell-based; conditions: 24 h RA vs DMSO
# Method: RNA Sequencing. The total RNA from four treatment groups (Nor_Ctrl, Nor_RA, Hyp_Ctrl and Hyp_RA, 3 replicates) was extracted using Trizol reagent according to the manufacturer's instructions (n=3). The RNA-seq library was constructed and subjected to 150 bp paired-end sequencing on an Illumina sequencing platform (Novogene). RNA-seq analysis was performed using the kallisto and sleuth analytical pipeline. In brief, a transcript index was generated with reference to Ensembl version 57 for hg19. Paired-end mRNA-seq reads were pseudo-aligned using kallisto (v0.42.4) with respect to this transcript index using 100 bootstraps (-b 100) to estimate the variance of estimated transcript abundances. Transcript-level estimates were aggregated to transcripts per million (TPM) estimates for each gene, with gene names assigned from Ensembl using biomaRt. Differential gene expression analysis was performed using the sleuth R package across pairwise groups (normoxia DMSO vs. normoxia RA, normoxia DMSO vs. hypoxia DMSO, normoxia RA vs. hypoxia RA) using Wald tests, with significant hits called with a sleuth q-vaulue<0.05 and fold change estimate b>abS(In(2)).
# [10] = Pharmacokinetics of RA in NSG mice; assay type: in vivo
# Method: For 13-cis-retinoic acid measurement, serum samples were collected at 0.5 h, 1 h, 2 h and 6 h after RA injection (10 mg/kg, i.p.). 10 ul serum was mixed with 90 ul extraction buffer (ethyl acetate:n-hexane:IPA, 30:60:10). After 20 min on a shaker at 120 rpm, the mixture was centrifuged at 5000 g for 5 min. The organic layer was collected into a new tube and dried using speed vacuum. The residue was reconstituted with 100 ul of 5 mM ammonium formate in water/acetonitrile (1:1). 5 ul sample was subjected to mass spectrometry analysis using Agilent 1290 coupled to QQQ 6470. […] The mobile phase was 5 mM ammonium formate and 0.1% formic acid in water (A) and 90% acetonitrile (B). […] Agilent QQQ 6470 was operated in positive mode with ion spray voltage at 3000 V. The MRM transitions were 301.2→159.1/205.1. Data was processed by Agilent MassHunter Quantitative Analysis for QQQ B.07.01. (Agilent Technologies)
# CHP134 cells [11] = assay: Immunofluorescence staining of β-tubulin III / MAP2; assay type: cell-based; conditions: 10 μM RA, 72 h
# Method: Immunofluorescence staining. […] cells were seeded into 8-champer slides with a density of 6000 cells/well and incubated with indicated treatment for 3 days. Cells were fixed with 4% PFA in 0.1% PBS-tween at room temperature for 30 min followed by permeabilization with 0.1% Triton X-100 in PBS at room temperature for 10 min. The cells were washed with PBS twice and blocked with 2.5% horse serum at room temperature for 1 hour. Then, cells were subjected to immunofluorescence staining with primary antibody overnight at 4° C. After twice washes with PBS, cells were incubated with Alexa Fluor 594-labeled anti-rabbit secondary antibody (Life Technologies) at room temperature for 1 hour followed by staining with DAP for 20 min. Images were acquired with Leica DMi8 microscope.
# [12] = test system: chromatin accessibility at RAR/RXR binding sites; conditions: hypoxia; 5 mM acetate
# Method: ATAC-seq. ATAC-seq was performed and analyzed as previously described (n=2). […] -O 5 -m 30 -q 15. Bowtie 2 version 2.3.1 was used to align trimmed reads to hg19 with flags -q -phred33-X 2000 -fr -p 8 -x hg19, followed by samtools sort command. Duplicates were marked with Picard-tools version 1.83, then samtools view with flags -b -f 1 -F12 -L were used to filter mitochondria mapping reads with a bed file containing all chromosomes except chrM. Filtered mapping files are transferred into coverage bigwig file using deeptools with default bin size (10 bps). SPP/phantom was run to obtain the fragment length with maximum Strand cross-correlation. MACS2 callpeak function was then performed with flags -q 0.05 -nomodel-extsize=½ fragment length obtained from SPP. Associate p-values for each peak is generated and extracted from MACS2 output. Ranked gene lists were created from the RNA-Seq and ATAC-Seq datasets following differential testing. Gene set enrichment analysis were performed using the GSEA with the C2 (CP:REACTOME) MSigDB v6.2.
# CHP134 cells [13] = conditions: hypoxia vs normoxia; U-13C-acetate 3 h
# Method: Metabolic tracing study. For glucose isotope tracing, CHP134 cells were pretreated under normoxia or hypoxia for 16 h (n=3). Then the medium was changed to DMEM:F12 with 3.15 g/L ^13C6-glucose with 10% dialyzed FBS for 3 h. For acetate isotope tracing, the procedure was same as glucose tracing except that the complete DMEM:F12 medium was supplemented with 2 mM ^13C2-acetate.
# Liquid chromatography-mass spectrometry analysis. For the metabolic tracing study, cells were washed with cold PBS, lysed in 80% Ultra LC-MS acetonitrile on ice for 15 min, centrifuged for 10 min at 20,000×g, and supernatant was subjected to mass spectrometry analysis. Liquid chromatography was performed using an Agilent 1290 Infinity LC system (Agilent, Santa Clara, US) coupled to a Q-TOF 6545 mass spectrometer (Agilent, Santa Clara, US). A hydrophilic interaction chromatography method (HILIC) with a BEH amide column (100 ×2.1 mm i.d., 1.7 μm; Waters) was used for compound separation at 35° C. with a flow rate of 0.3 ml/min. The mobile phase A consisted of 25 mM ammonium acetate and 25 mM ammonium hydroxide in water and mobile phase B was acetonitrile. The gradient elution was 0-1 min, 85 % B; 1-12 min, 85% B→65% B; 12-12.2 min, 65% B→40% B; 12.2-15 min, 40% B. After the gradient, the column was re-equilibrated at 85% B for 5 min. The overall runtime was 20 min, and the injection volume was 5 μL. […]
# [14] = 10 μM RA combined with 5 mM acetate or 2 mM GTA
smiles,measurement,setting,value
"COC(=O)CCC(=O)C(=O)OC [DMKG, Dimethyl-α-ketoglutarate]",expression of NGFR and SNCG,CHP134 cells [1]; 10 μM RA combined with 5 mM DMKG,did not restore the expression of NGFR and SNCG
same,histone acetylation,[2]; 1 mM or 5 mM DMKG,did not significantly increase histone acetylation
same,histone hypermethylation,[3],reduced histone hypermethylation
"CC(=O)OCC(COC(C)=O)OC(C)=O [GTA, glycerol triacetate]",RA-induced neuron-like morphological changes,"SMS-KCNR cells [4]; hypoxia, 10 μM RA plus 2 mM GTA",restored the RA-induced neuron-like morphological changes
same,differentiative activity as a single agent,CHP134 cells [5]; GTA alone,little to no differentiative activity
same,RA-induced neuron-like morphological changes,"CHP134 cells [5]; hypoxia, 10 μM RA plus 2 mM GTA, 48 h",restored the RA-induced neuron-like morphological changes
same,expression of NGFR and SNCG,SMS-KCNR cells [6],significantly restored the expression of NGFR and SNCG
same,plasma acetate concentration vs control group,[7],slight increase of plasma acetate concentration
same,expression of NGFR and SNCG,CHP134 cells [1]; [14],significantly restored the expression of NGFR and SNCG
same,toxicity,[8],no detectable toxicity
same,"acetylation on H3K9, H3K27, and total H3",[2],"restored acetylation on H3K9, H3K27, and total H3"
"CC1=C(/C=C/C(C)=C/C=C/C(C)=C\C(=O)O)C(C)(C)CCC1 [RA, 13-cis-retinoic acid]",neurite outgrowth and differentiation morphology,"SMS-KCNR cells [4]; 10 μM RA, hypoxia (0.5% O2) vs normoxia",partially diminished nerite outgrowth and the differentiation morphology
same,cell morphological changes / neurite outgrowth,"SMS-KCNR cells [4]; 10 μM RA, normoxia (21% O2)",induced obvious cell morphological changes to a mature neuronal-like phenotype characterized by neurite outgrowth
same,neurite outgrowth and differentiation morphology,"CHP134 cells [5]; 10 μM RA, 48 h, hypoxia (0.5% O2) vs normoxia",partially diminished nerite outgrowth and the differentiation morphology
same,cell morphological changes / neurite outgrowth,"CHP134 cells [5]; 10 μM RA, 48 h, normoxia (21% O2)",induced obvious cell morphological changes to a mature neuronal-like phenotype characterized by neurite outgrowth
same,"anti-tumor effect (tumor volume, tumor weight)",CHP134 mice xenografts,didn't show anti-tumor effect
same,pathway analysis of RA-upregulated genes,CHP134 cells [9],"enrichment of NGF signaling, transmission across of chemical synapses and neuronal system genes"
same,half-life of RA,[10]; 10 mg/kg i.p.,relative short half-life
same,time blood RA concentration maintained above 10 uM,[10]; 10 mg/kg i.p.,around 2 h
same,blood RA concentration,"[10]; 10 mg/kg i.p., at 6 h after injection",reduced to the basal level
same,blood RA concentration,"[10]; 10 mg/kg i.p., maintained for around 2 h",above 10 uM
same,time of peak blood RA concentration,"[10]; 10 mg/kg, after i.p. injection",30 min
same,β-tubulin III/MAP2 positive neurites,CHP134 cells [11]; hypoxia vs normoxia,partially suppressed
same,β-tubulin III/MAP2 positive neurites,CHP134 cells [11]; normoxia,increased β-tubulin III/MAP2 positive neurites
"CC(=O)[O-].[Na+] [acetate, Sodium acetate]",chromatin accessibility,[12],partially restored chromatin accessibility
same,chromatin accessibility of genes with RAR/RXR binding sites,[12],increased chromatin accessibility
same,expression of NGFR and SNCG,SMS-KCNR cells [6],significantly restored the expression of NGFR and SNCG
same,expression of NGFR and SNCG,CHP134 cells [1]; [14],significantly restored the expression of NGFR and SNCG
same,"acetylation on H3K9, H3K27, and total H3",[2],"restored acetylation on H3K9, H3K27, and total H3"
same,cellular acetyl-CoA production (13C labeled acetyl-CoA[M+2]),CHP134 cells [13],promote cellular acetyl-CoA production
